Results published in BindingDB's records for doi:10.1021/jm00101a009 (University of Minnesota, 1992).

experiment: The compound was evaluated for binding affinity against Opioid receptor delta 1 in guinea pig brain membrane using [3H]- DPDPE as ligand

In order of falling Ki:
1. Oc1ccc2c3c1O[C@H]1c4[nH]c5ccccc5c4C[C@H]4C(C2)NCC[C@]314  935 nM
2. Oc1ccc2c3c1O[C@H]1c4[nH]c5ccccc5c4C[C@H]4C(C2)N(CCc2ccccc2)CC[C@]314 [22-phenethyl-14-oxa-11,22-diazaheptacyclo[13.9.1.01,13.02,21.04,12.05,10.019,25]pentacosa-4(12),5(10),6,8,15(25),16,18-heptaen-16-ol]  22 nM
3. Oc1ccc2c3c1O[C@H]1c4[nH]c5ccccc5c4C[C@@]4(O)C(C2)NCC[C@]314  11 nM
4. Oc1ccc2c3c1O[C@H]1c4[nH]c5ccccc5c4C[C@@]4(O)C(C2)N(CCc2ccccc2)CC[C@]314 [22-phenethyl-14-oxa-11,22-diazaheptacyclo[13.9.1.01,13.02,21.04,12.05,10.019,25]pentacosa-4(12),5(10),6,8,15(25),16,18-heptaene-2,16-diol]  11 nM
